Laboratory results from ChEMBL document CHEMBL1201862, “PubChem BioAssay data set” (2004).
Active and inactive are the calls of the source.

Key:
[1] = molecular target: Glucose-6-phosphate 1-dehydrogenase (Homo sapiens, UniProt P11413); assay: inhibition of Homo sapiens G6PD, dose series – biochemical, fluorescence, selectivity assay for P. falciparum G6PD inhibitor project, dose response (AID 504792); format: functional
[2] = molecular target: T1, Coagulation factor XII (Homo sapiens, UniProt P00748); format: functional;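 note: activated factor XIIa alpha cleaving a fluorogenic AMC peptide substrate; inhibitor potency from loss of enzyme activity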
T1 sequence (P00748 whole entry): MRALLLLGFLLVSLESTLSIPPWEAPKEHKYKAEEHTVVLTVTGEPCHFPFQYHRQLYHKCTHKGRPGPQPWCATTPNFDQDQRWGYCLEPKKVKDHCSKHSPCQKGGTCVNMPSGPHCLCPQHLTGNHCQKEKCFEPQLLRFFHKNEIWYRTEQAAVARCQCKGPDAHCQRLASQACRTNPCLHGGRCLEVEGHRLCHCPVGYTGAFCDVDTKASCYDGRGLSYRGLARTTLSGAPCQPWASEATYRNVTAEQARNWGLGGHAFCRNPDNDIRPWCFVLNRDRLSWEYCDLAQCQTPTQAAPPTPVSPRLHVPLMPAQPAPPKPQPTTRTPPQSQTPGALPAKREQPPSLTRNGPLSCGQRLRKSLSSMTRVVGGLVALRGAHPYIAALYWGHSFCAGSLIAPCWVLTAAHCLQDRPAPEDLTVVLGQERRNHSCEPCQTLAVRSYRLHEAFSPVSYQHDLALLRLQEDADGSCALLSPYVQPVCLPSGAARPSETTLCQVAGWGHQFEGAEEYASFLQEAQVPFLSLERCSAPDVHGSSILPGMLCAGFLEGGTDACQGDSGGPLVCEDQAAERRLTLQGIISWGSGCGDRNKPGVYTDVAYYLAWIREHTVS

[3] = cells; format: functional
[4] = HEK-293T cell viability reduction – luminescence, B-cell screen hits, cytotoxicity control for BCR NF-kB inhibitor project, dose response (AID 489021); format: functional, cell-based;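 note: HEK-293T cells carrying an NF-kB luciferase reporter; cells exposed to compound for about 14 hours before viability readout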
[5] = molecular target: DNA dC->dU-editing enzyme APOBEC-3G (Homo sapiens, UniProt Q9HC16); assay: Dose Response confirmation of small molecule APOBEC3G DNA Deaminase Inhibitors via a fluorescence-based single-stranded DNA deaminase assay. [Related pubchem assays (depositor defined):AID493012, AID493028]; format: functional
[6] = molecular target: T2, Aminopeptidase N (Plasmodium falciparum FcB1/Columbia, UniProt O96935); assay: malaria alanyl aminopeptidase activity blockers – biochemical, fluorogenic H-Leu-NHMec substrate, 1536-well (AID 1445); parameters: species or system Plasmodium falciparum 3D7, 3D7
T2 sequence (O96935 whole entry): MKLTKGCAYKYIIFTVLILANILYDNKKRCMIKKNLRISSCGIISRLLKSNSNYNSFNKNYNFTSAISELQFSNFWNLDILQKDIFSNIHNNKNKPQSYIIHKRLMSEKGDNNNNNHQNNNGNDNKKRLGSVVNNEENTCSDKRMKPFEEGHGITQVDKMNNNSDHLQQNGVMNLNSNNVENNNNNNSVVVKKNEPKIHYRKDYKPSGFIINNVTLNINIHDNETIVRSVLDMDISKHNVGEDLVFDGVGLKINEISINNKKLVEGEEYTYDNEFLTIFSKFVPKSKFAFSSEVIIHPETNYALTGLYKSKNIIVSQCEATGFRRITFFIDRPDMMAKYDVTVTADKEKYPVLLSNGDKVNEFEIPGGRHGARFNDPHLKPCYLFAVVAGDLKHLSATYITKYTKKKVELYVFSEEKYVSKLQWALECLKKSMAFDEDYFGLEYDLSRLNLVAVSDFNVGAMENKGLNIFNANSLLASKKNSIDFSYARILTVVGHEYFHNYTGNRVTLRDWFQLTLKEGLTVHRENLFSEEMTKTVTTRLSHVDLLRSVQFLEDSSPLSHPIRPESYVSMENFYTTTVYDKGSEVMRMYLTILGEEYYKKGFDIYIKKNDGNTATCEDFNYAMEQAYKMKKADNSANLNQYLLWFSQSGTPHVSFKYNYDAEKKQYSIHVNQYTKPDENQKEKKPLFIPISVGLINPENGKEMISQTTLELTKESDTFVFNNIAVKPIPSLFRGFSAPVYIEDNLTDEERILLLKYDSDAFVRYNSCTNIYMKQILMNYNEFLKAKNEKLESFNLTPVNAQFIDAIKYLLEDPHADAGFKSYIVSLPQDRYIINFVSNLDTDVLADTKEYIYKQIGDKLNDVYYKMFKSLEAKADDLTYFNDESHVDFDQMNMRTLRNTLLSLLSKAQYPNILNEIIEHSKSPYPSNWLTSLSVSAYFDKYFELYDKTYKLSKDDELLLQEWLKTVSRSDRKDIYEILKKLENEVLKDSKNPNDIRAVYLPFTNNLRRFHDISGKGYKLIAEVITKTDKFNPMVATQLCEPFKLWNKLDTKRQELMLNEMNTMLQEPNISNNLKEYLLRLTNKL

[7] = test system: H9c2; assay: cells; format: functional, cell-based; details: Rattus norvegicus, H9c2, Myocardium;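 note: confirmatory concentration-response retest of ultra-high-throughput screening hits for modulation of myocardial damage; cell death induced by hydrogen peroxide oxidative stress; compound pretreatment for 60 min then peroxide exposure for 2 h; potency is for protecting the cells against peroxide damage rather than for killing them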
[8] = Trypanosoma cruzi growth suppression in host cells – NIH3T3 host cells, beta-gal luminescence, confirmation (AID 2044); format: functional, cell-based;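 note: intracellular parasites grown in NIH/3T3 mouse fibroblasts as host cells; luminescent beta-galactosidase reporter signal from transgenic T. cruzi replicating inside host cells; inhibitors lower the luminescence signal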
[9] = NIH3T3 cell viability loss – ATP luminescence, mouse fibroblasts, counter-screen, dose response (AID 2010); format: functional, cell-based;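 note: cells exposed to compound for about 90 hours before reading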
[10] = test system: Vero; assay: cells; format: functional; details: Chlorocebus sabaeus
[11] = molecular target: T3, Corticotropin-releasing factor receptor 2/Corticotropin-releasing factor-binding protein (Homo sapiens, UniProt P24387+Q13324); assay: Dose Response confirmation of uHTS hits for small molecule antagonists of the CRF-binding protein and CRF-R2 receptor complex.; format: functional; details: read-out: IC50_Mean
T3 sequence (Q13324 whole entry): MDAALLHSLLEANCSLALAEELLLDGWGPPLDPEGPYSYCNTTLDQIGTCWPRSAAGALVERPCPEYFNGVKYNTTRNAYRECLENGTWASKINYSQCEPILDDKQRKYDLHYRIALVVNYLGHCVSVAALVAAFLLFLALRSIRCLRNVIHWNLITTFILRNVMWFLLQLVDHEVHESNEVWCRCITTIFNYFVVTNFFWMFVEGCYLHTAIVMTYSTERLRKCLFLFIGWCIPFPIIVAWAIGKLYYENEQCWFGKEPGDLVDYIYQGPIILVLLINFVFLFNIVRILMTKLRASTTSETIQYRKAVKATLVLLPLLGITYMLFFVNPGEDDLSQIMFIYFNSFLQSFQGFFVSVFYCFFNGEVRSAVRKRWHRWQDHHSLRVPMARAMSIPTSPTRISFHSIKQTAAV
T3 sequence (P24387 whole entry): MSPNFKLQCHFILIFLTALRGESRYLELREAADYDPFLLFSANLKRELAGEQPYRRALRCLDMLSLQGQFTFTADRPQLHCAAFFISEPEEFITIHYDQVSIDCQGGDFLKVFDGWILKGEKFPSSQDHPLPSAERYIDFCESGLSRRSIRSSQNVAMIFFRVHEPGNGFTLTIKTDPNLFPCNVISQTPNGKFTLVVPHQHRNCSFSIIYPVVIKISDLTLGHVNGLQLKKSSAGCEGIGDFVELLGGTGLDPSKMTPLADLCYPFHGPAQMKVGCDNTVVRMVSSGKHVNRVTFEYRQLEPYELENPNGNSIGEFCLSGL

[12] = molecular target: T3, Corticotropin-releasing factor receptor 2/Corticotropin-releasing factor-binding protein; assay: activators of CRF receptor 2 with binding protein – uHTS hits, confirmation (AID 602473); format: functional; details: read-out: EC50_Mean
[13] = test system: HEK293; assay: cells; format: functional, cell-based; details: Homo sapiens
[14] = test system: HEK293; assay: inhibition of NOD1-driven NF-kB reporter – cell-based, luminescence, uHTS, primary screen (AID 1578); format: functional; details: Homo sapiens
[15] = molecular target: Nucleotide-binding oligomerization domain-containing protein 2 (Homo sapiens, UniProt Q9HC29); assay: inhibition of NOD2-driven NF-kB reporter – cell-based, luminescence, uHTS, HEK293 (AID 1566); format: functional
[16] = test system: HEK293; assay: cells; format: functional, cell-based; details: Homo sapiens; remark: listed apart in the source
[17] = test system: HEK293; assay: NOD2 signaling inhibitors in MDP-stimulated cells, cell-based, uHTS, luminescence (AID 2001); format: functional; details: Homo sapiens
[18] = test system: HEK293; assay: cells; format: functional, cell-based; details: Homo sapiens; remark: listed apart in the source

Glucose-6-phosphate 1-dehydrogenase, sequence (P11413 whole entry): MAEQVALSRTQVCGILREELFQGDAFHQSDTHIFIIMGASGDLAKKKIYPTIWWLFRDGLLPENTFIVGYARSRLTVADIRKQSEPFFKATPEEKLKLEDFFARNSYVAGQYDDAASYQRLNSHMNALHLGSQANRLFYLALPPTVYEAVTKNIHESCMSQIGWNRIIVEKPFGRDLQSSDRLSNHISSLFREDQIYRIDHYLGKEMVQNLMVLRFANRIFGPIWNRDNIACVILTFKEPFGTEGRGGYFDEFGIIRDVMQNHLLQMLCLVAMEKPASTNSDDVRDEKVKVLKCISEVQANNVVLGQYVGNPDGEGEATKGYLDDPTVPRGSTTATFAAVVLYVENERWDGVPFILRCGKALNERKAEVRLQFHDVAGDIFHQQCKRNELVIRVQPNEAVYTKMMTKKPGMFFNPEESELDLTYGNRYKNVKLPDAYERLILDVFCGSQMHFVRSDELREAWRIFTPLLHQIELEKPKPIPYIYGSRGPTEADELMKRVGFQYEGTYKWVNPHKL
DNA dC->dU-editing enzyme APOBEC-3G, sequence (Q9HC16 whole entry): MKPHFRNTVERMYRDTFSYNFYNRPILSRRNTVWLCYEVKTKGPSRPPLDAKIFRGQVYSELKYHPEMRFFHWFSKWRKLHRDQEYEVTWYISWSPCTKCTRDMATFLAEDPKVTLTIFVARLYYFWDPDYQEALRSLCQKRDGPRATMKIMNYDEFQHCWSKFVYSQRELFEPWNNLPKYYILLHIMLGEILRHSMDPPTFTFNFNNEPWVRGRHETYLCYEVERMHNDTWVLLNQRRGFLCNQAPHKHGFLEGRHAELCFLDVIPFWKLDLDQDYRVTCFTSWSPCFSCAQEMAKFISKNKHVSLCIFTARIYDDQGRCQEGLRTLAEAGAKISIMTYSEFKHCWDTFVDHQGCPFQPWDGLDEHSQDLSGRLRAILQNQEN
Nucleotide-binding oligomerization domain-containing protein 2, sequence (Q9HC29 whole entry, the tested form may be a part): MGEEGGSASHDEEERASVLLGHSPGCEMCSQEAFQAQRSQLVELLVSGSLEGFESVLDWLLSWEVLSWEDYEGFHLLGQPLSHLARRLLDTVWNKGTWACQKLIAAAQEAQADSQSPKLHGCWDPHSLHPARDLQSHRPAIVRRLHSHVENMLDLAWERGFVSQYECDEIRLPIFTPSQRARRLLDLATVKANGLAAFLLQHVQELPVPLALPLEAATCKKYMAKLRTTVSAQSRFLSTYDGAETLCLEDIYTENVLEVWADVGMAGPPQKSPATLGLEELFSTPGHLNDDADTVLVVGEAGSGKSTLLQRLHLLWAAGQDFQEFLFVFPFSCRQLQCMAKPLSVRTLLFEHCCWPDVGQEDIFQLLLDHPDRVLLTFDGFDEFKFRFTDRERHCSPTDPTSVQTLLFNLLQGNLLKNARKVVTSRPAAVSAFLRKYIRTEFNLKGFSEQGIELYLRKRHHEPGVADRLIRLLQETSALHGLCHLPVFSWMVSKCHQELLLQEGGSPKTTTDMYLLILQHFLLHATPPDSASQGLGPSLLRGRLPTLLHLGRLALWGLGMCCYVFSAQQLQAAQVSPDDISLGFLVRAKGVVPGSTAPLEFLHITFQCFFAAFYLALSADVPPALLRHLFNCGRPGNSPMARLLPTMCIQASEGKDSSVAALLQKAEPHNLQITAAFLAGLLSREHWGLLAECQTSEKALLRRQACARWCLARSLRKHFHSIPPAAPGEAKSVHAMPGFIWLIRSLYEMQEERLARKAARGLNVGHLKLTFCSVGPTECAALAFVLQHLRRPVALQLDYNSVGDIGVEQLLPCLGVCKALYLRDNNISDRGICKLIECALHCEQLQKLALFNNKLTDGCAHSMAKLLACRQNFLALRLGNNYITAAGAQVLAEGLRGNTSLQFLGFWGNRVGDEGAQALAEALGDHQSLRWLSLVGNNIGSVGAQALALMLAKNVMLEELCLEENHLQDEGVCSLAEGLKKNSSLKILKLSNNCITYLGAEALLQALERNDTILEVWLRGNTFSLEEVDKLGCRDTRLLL

Compound: COc1cc(C(=O)ON=C2C=C(C)C(=O)C(C)=C2)cc(OC)c1OC
- IC50 [1]: > 80 µM (inactive)
- IC50 [2]: 0.533 µM (active)
- IC50 [3]: 40.2 µM (active)

Compound: Cc1cccc(NC(=O)COC(=O)CCc2c[nH]c3ccccc23)c1C
- IC50 [3]: 2.82 µM (active)

Compound: O=C(CNC(=O)c1cccs1)NCC(=O)OCC(=O)c1ccc([N+](=O)[O-])cc1
- IC50 [1]: > 80 µM (inactive)

Compound: O=C(Oc1cccc(/C=N/Nc2nc(N3CCOCC3)nc(N3CCOCC3)n2)c1)c1ccco1
- IC50 [4]: > 80 µM (inactive)

Compound: Cn1c(=O)cc(OCCCC(=O)NC2CCCC2)c2ccccc21
- IC50 [4]: > 80 µM (inactive)

Compound: O=C1CC(Sc2nc[nH]n2)C(=O)N1c1ccccc1 (centres undefined)
- IC50 [5]: 55.7 µM (active)

Compound: NS(=O)(=O)c1ccc(CCNC(=O)CCCn2c(SCC(=O)N3CCCC3)nc3ccsc3c2=O)cc1
- IC50 [6]: 97.7 µM (active)

Compound: NC(=O)c1ccc(Oc2ccc3ccc(=O)oc3c2)c([N+](=O)[O-])c1
- IC50 [6]: 42.5 µM (active)

Compound: COC(=O)c1cc(NC(=O)Nc2cc(OC)ccc2OC)cc(C(=O)OC)c1
- IC50 [7]: 16.3 µM (active)
- IC50 [4]: > 80 µM (inactive)

Compound: COc1c(Cl)cc(Cl)cc1C(=O)Nc1ccc(CN2CCCCC2)cc1
- EC50 [8]: 3 µM (active)
- EC50 [9]: > 60 µM (not active)
- CC50 [10]: > 25 µM (active)

Compound: O=C(Nc1nnc(S(=O)(=O)N2CCCCC2)s1)c1ccc(Cl)cc1
- IC50 [1]: > 80 µM (inactive)
- IC50 [11]: > 47.1 µM (inactive)
- EC50 [12]: > 53 µM (inactive)

Compound: COc1cccc(OCCOc2ccc(/C=C3/SC(=S)NC3=O)cc2)c1
- IC50 [13]: > 20 µM (inactive)
- EC50 [14]: 4.27 µM (active)
- EC50 [15]: 9.33 µM (active)
- IC50 [16]: 6.04 µM (active)
- IC50 [17]: 6.67 µM (inactive)
- IC50 [18]: 16.5 µM (active)
